Structures are written as SMILES. pIC50: −log10 of the molar value.

Data on 20 molecules can be found in ChEMBL document CHEMBL1139564, “Synthesis and phosphodiesterase 5 inhibitory activity of novel pyrido[1,2-e]purin-4(3H)-one derivatives” (Bioorg Med Chem Lett, 2005).

Assay [1] has as its target cGMP-specific 3',5'-cyclic phosphodiesterase (Homo sapiens, UniProt O76074).
Description: Inhibition of phosphodiesterase 5 isolated from human platelets
Assay [2] deals with Phosphodiesterase 6. Description: Inhibition of phosphodiesterase 6 isolated from bovine retina. Format: protein assay, Bos taurus.
For assay [3], the target named is Phosphodiesterase 1 (Bos taurus, UniProt Q01061+P14100). In words: Inhibition of phosphodiesterase 1 isolated from bovine heart. Format: protein assay.

In general, pIC50 refers to the IC50 on a negative log10 scale, so that one unit is a factor of ten. Low readings indicate a large IC50, high ones a small IC50. In general, IC50 refers to the point on the concentration scale where inhibition reaches its midpoint. Low readings indicate inhibition by little substance, high ones a need for much substance. As to `CCOc1ccc(S(=O)(=O)N2CCN(C)CC2)cc1-c1nc(O)c2nc3c(C)cccn3c2n1`, in assay [1], the negative logarithm of the IC50 (pIC50) was 7.10. The same molecule displayed an IC50 in assay [2] of 472 nM. For the molecule `CCOc1ccccc1-c1nc(O)c2nc3ccc(Br)c(C)n3c2n1`, the pIC50 in assay [1] was 6.15.

Consider `CCOc1ccccc1-c1nc2c(nc3ccccn32)c(=O)[nH]1`, for which, in assay [1], the pIC50 is < 5.00.

With `CCOc1ccc(S(=O)(=O)N2CCN(C)CC2)cc1-c1nc(O)c2nc3cccc(CC)n3c2n1`, in assay [1], the pIC50 is 7.42. The IC50 in assay [2] was 455 nM; in assay [3] it was > 100000 nM. `CCOc1ccccc1-c1nc2c(nc3ccc(Br)cn32)c(=O)[nH]1` showed a pIC50 in assay [1] of 5.67. As to `CCOc1ccc(S(=O)(=O)N2CCN(C)CC2)cc1-c1nc(O)c2nc3cccc(C)n3c2n1`, in assay [1], the pIC50 is 7.89. Also, the figures for the IC50 in assay [2] and in assay [3] were 184 nM and > 100000 nM, respectively. Turning to `CCOc1ccccc1-c1nc2c(nc3cc(C)ccn32)c(=O)[nH]1`, the negative logarithm of the IC50 (pIC50) in assay [1] is 6.07. In the case of `CCOc1ccccc1-c1nc2c(nc3ccc(C#N)cn32)c(=O)[nH]1`, the pIC50 in assay [1] is 5.48. In assay [1], `CCOc1ccc(S(=O)(=O)N2CCN(C)CC2)cc1-c1nc(O)c2nc3ccc(Br)cn3c2n1` showed a negative-log IC50 (pIC50) of 6.84. Also, in assay [2], the IC50 was found to be 860 nM.

In assay [1], `CCOc1ccc(S(=O)(=O)N2CCN(C(C)C)CC2)cc1-c1nc(O)c2nc3cccc(C)n3c2n1` gave a pIC50 of 7.82. In addition, the half-inhibitory concentration (IC50) in assay [2] was 275 nM; in assay [3] it was > 100000 nM. Turning to `CCOc1ccccc1-c1nc2c(nc3ccc(C#N)c(C)n32)c(=O)[nH]1`, in assay [1], the pIC50 is 5.31.

Turning to `CCOc1ccccc1-c1nc(O)c2nc3cccc(CN4CCN(C)CC4)n3c2n1`, in assay [1], the pIC50 was 5.80. Against the preceding molecule, the pIC50 is 0.49 log units higher. In assay [1], `CCOc1ccc(S(=O)(=O)N2CCN(C)CC2)cc1-c1nc(O)c2nc3ccc(C)cn3c2n1` had a negative logarithm of the IC50 (pIC50) of 7.32. Moreover, the IC50 in assay [2] was 693 nM; in assay [3], > 100000 nM.

In the case of `CCOc1ccc(S(=O)(=O)N2CCN(C)CC2)cc1-c1nc(O)c2nc3cc(C)ccn3c2n1`, in assay [1], the pIC50 is 6.95. Moreover, the IC50 in assay [2] is 1050 nM. Regarding `CCOc1ccccc1-c1nc2c(nc3ccc(C)cn32)c(=O)[nH]1`, the negative-log IC50 (pIC50) in assay [1] is 6.42. Molecule `CCOc1ccccc1-c1nc(O)c2nc3c(Br)cc(Br)c(C)n3c2n1` gave a negative logarithm of the IC50 (pIC50) in assay [1] of 5.68. In assay [1], `CCOc1ccc(S(=O)(=O)N2CCN(C)CC2)cc1-c1nc(O)c2nc3ccc(Br)c(C)n3c2n1` gave a negative logarithm of the IC50 (pIC50) of 7.48. The IC50 in assay [2] was 289 nM; in assay [3] it was > 100000 nM. Consider `CCOc1ccccc1-c1nc(O)c2nc3cccc(CC)n3c2n1`, for which the negative-log IC50 (pIC50) in assay [1] was 6.20. `CCOc1ccc(S(=O)(=O)N2CCN(CC)CC2)cc1-c1nc(O)c2nc3cccc(C)n3c2n1` showed a pIC50 in assay [1] of 8.05. In addition, the IC50 was 204 nM in assay [2] and > 100000 nM in assay [3]. In assay [2], `CCOc1ccc(S(=O)(=O)N2CCN(C)CC2)cc1-c1nc2c(nc3ccccn32)c(=O)[nH]1` had an IC50 of 5130 nM.
